Laboratory results taken from patent publication US12193444B2, “Insecticidal composition and use thereof” (ADAMA MAKHTESHIM LTD., priority 2018, dated 2025).
Where a name gives a salt, the structure may show the parent alone.

Key:
[1] = Accelerated storage stability: degradation of active ingredients after 14 days at 54° C.; format: physicochemical
Protocol: In some embodiments, the percentage of degradation is calculated based on the percentage of cartap and/or emamectin by weight based on the total weight of the stable composition before and after storage. […]
In addition, two different levels of water content were measured, content (a) less than 0.2% and b) from more than 0.3% to less than 0.5%.
In example 1, the concentrations of the cartap and emamectin were measured after 14 days storage at 54° C.
For GR composition, it was observed that the failed batches are associated with the bulging of the pouch under accelerated storage. For study of accelerated storage at 54° C. for 14 days, the sample is kept in a sealed tri-laminated aluminum pouch and after storage, the visual observations are done to observe the pouch bulging, if any. Comparative rating was done, where more number of stars denotes more bulging. From table 5, it is clear that, for the storage stability samples of pH 5.1, 4.7, 4.1 and 3.5 (for both the processes) samples with water content of less or equal to 0.2% water content by weight based on the total weight of the stable composition, have not shown any bulging.

[2] = cited from earlier work
[3] = pH (1% Aq.) 3.5, water content <0.2 % w/w
[4] = pH (1% Aq.) 3.5, water content >0.3 to <0.5 % w/w
[5] = pH (1% Aq.) 4.1, water content <0.2 % w/w
[6] = pH (1% Aq.) 4.1, water content >0.3 to <0.5 % w/w
[7] = pH (1% Aq.) 4.7, water content <0.2 % w/w
[8] = pH (1% Aq.) 4.7, water content >0.3 to <0.5 % w/w
[9] = pH (1% Aq.) 5.1, water content <0.2 % w/w
[10] = pH (1% Aq.) 5.1, water content >0.3 to <0.5 % w/w
[11] = pH (1% Aq.) 5.5, water content <0.2 % w/w
[12] = pH (1% Aq.) 5.5, water content >0.3 to <0.5 % w/w
[13] = pH (1% Aq.) 5.8, water content <0.2 % w/w
[14] = pH (1% Aq.) 5.8, water content >0.3 to <0.5 % w/w

Molecule: CN(C)C(CSC(N)=O)CSC(N)=O [Cartap Hydrochloride, S,S′-(2-dimethylaminotrimethylene) bis(thiocarbamate)]
- % Cartap Hydrochloride degradation (14 days storage, 54° C.) Process 1 [1, 3]: 0%
- % Cartap Hydrochloride degradation (14 days storage, 54° C.) Process 2 [1, 3]: 2.27%
- % Cartap Hydrochloride degradation (14 days storage, 54° C.) Process 1 [1, 4]: 0%
- % Cartap Hydrochloride degradation (14 days storage, 54° C.) Process 2 [1, 4]: 2.80%
- % Cartap Hydrochloride degradation (14 days storage, 54° C.) Process 2 [1, 5]: 0.23%
- % Cartap Hydrochloride degradation (14 days storage, 54° C.) Process 2 [1, 6]: 2.80%
- % Cartap Hydrochloride degradation (14 days storage, 54° C.) Process 1 [1, 7]: 2.46%
- % Cartap Hydrochloride degradation (14 days storage, 54° C.) Process 1 [1, 8]: 3.63%
- % Cartap Hydrochloride degradation (14 days storage, 54° C.) Process 1 [1, 9]: 2.40%
- % Cartap Hydrochloride degradation (14 days storage, 54° C.) Process 2 [1, 9]: 1.67%
- % Cartap Hydrochloride degradation (14 days storage, 54° C.) Process 1 [1, 10]: 4.05%
- % Cartap Hydrochloride degradation (14 days storage, 54° C.) Process 2 [1, 10]: 1.22%
- % Cartap Hydrochloride degradation (14 days storage, 54° C.) Process 1 [1, 11]: 0.00%
- % Cartap Hydrochloride degradation (14 days storage, 54° C.) Process 1 [1, 12]: 3.30%
- % Cartap Hydrochloride degradation (14 days storage, 54° C.) Process 1 [1, 13]: 3.16%
- % Cartap Hydrochloride degradation (14 days storage, 54° C.) Process 2 [1, 13]: 1.09%
- % Cartap Hydrochloride degradation (14 days storage, 54° C.) Process 1 [1, 14]: 4.94%
- % Cartap Hydrochloride degradation (14 days storage, 54° C.) Process 2 [1, 14]: 6.48%

Molecule: (4″R)-5-O-demethyl-4″-deoxy-4″-(methylamino)avermectin [Emamectin]
- decomposition of emamectin ([2]; highly unstable, decomposes rapidly): about 25%
- stability to hydrolysis ([2]; pH 5, 6, 7 and 8 (25° C.)): stable to hydrolysis
- % Emamectin degradation (14 Days Storage, 54° C.) Process 1 [1, 3]: 1.9%
- % Emamectin degradation (14 Days Storage, 54° C.) Process 2 [1, 3]: 4.49%
- % Emamectin degradation (14 Days Storage, 54° C.) Process 1 [1, 4]: 13%
- % Emamectin degradation (14 Days Storage, 54° C.) Process 2 [1, 4]: 13.97%
- % Emamectin degradation (14 Days Storage, 54° C.) Process 1 [1, 5]: 0.95%
- % Emamectin degradation (14 Days Storage, 54° C.) Process 2 [1, 5]: 2.3%
- % Emamectin degradation (14 Days Storage, 54° C.) Process 1 [1, 6]: 14.45%
- % Emamectin degradation (14 Days Storage, 54° C.) Process 2 [1, 6]: 5.02%
- % Emamectin degradation (14 Days Storage, 54° C.) Process 1 [1, 7]: 6.14%
- % Emamectin degradation (14 Days Storage, 54° C.) Process 2 [1, 7]: 2.38%
- % Emamectin degradation (14 Days Storage, 54° C.) Process 1 [1, 8]: 17.1%
- % Emamectin degradation (14 Days Storage, 54° C.) Process 2 [1, 8]: 7.31%
- % Emamectin degradation (14 Days Storage, 54° C.) Process 1 [1, 9]: 7.98%
- % Emamectin degradation (14 Days Storage, 54° C.) Process 2 [1, 9]: 4.49%
- % Emamectin degradation (14 Days Storage, 54° C.) Process 1 [1, 10]: 12.12%
- % Emamectin degradation (14 Days Storage, 54° C.) Process 2 [1, 10]: 27.2%
- % Emamectin degradation (14 Days Storage, 54° C.) Process 1 [1, 11]: 8.33%
- % Emamectin degradation (14 Days Storage, 54° C.) Process 2 [1, 11]: 6.89%
- % Emamectin degradation (14 Days Storage, 54° C.) Process 1 [1, 12]: 40.96%
- % Emamectin degradation (14 Days Storage, 54° C.) Process 2 [1, 12]: 24.63%
- % Emamectin degradation (14 Days Storage, 54° C.) Process 1 [1, 13]: 16.7%
- % Emamectin degradation (14 Days Storage, 54° C.) Process 2 [1, 13]: 20.2%
- % Emamectin degradation (14 Days Storage, 54° C.) Process 1 [1, 14]: 70.74%
- % Emamectin degradation (14 Days Storage, 54° C.) Process 2 [1, 14]: 26.59%
